The values that follow come from patent publication US6972287B1, “Method of inhibiting amyloid protein aggregation and imaging amyloid deposits” (Pfizer Inc., priority 1999, dated 2005).

SMILES strings stand for the structures. Values joined by “and” are separate entries in the source; they are usually repeats but may differ in a detail not shown here. Equal values may be shown once.

The target in data set [1] is T1, Aβ (1-40) peptide (Homo sapiens, UniProt P05067).
T1 construct: 10 μL 0.5 mg/mL Aβ (1-40) peptide in 20% HFIP
T1 sequence (P05067 672-711 limits assumed): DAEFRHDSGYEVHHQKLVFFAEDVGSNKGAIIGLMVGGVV
Nature of the data set: BAPA (Beta-Amyloid Peptide Aggregation, pH 6.0, filtration). Type of data set: biochemical. The settings on record: Aβ (1-40) 33 μM, pH 6.0, 2 to 4 hours at room temperature; replicate values; letter = synthetic lot. Summed up:
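Aggregation of human Aβ (1-40) peptide was measured in an endpoint filtration assay. The peptide was first reduced to monomer with hexafluoroisopropanol (HFIP), then used at 33 μM so it would aggregate at pH 6.0, and incubated for 2 to 4 hours at room temperature. Filter plates were washed with 100 μL phosphate buffer, impregnated with Meltilex, and counted on a Microbeta counter with background correction.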

Data set [2] deals with T2, Aβ (1-42) (Homo sapiens, UniProt P05067).
T2 construct: Required Aβ (1-42) (California Peptide) was dried from its hexafluoroisopropanol (HFIP) stock solution; purchased California Peptide
T2 sequence (P05067 672-713 limits assumed): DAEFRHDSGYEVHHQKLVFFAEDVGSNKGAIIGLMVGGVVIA
Briefly: BATYM assay (Aβ (1-42) aggregation, Thioflavin T fluorescence). The settings on record: Aβ 1-42 final concentration 100 μM, 37° C., 1 day, letter = synthetic lot. Type of data set: biochemical. The method in brief:
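Aβ (1-42) (100 μM final, PBS pH 7.4 from DMSO) incubated with compound at 37° C. for 1 day. Aggregation read by ThT (30 μM, glycine-NaOH pH 8.5) fluorescence, ex 440/em 485 nm; inhibition as fluorescence reduction corrected for compound-alone signal, IC50 by curve fitting from two experiments in triplicate.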

Data set [3] has as its target T3, Aβ(1-40) (Homo sapiens, UniProt P05067).
T3 construct: […]; purchased Bachem, Torrance, Calif
Nature of the data set: BASST (Beta-Amyloid Self-Seeding, Thioflavin T), inhibitors of self-seeded amyloid fibril growth. Type of data set: biochemical. The settings on record: 30 μM soluble Aβ(1-40), 37° C., 3 to 5 hours, thioflavin T fluorescence; replicate values; letter = synthetic lot; read-out: BASST (IC50 = μM). Summed up: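 Self-seeded Aβ(1-40) fibril growth was run in 50 mM sodium phosphate pH 7.5, 100 mM NaCl, 0.02% NaN3, 1 M urea. Compounds were tested in 3-fold serial dilutions (top 100 μM final): 10 min on ice, then 3–5 h at 37 °C. Fibrils were read by 5 μM thioflavin T fluorescence (ex 440/em 485 nm).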

For data set [4], the target named is T3, Aβ(1-40). Briefly: BASSR (Beta-Amyloid Self-Seeding Radioassay), inhibitors of self-seeded amyloid fibril growth. Type of data set: biochemical. The conditions noted are these: 30 μM soluble Aβ(1-40) + 125I-labeled Aβ(1-40), 37° C., 3 to 5 hours; replicate values; letter = synthetic lot; ppt = precipitate; V-shaped = inhibition followed by precipitation. Summed up:
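Self-seeded growth of ^125I-labeled Aβ(1-40) fibrils in 50 mM sodium phosphate pH 7.5, 100 mM NaCl, 0.02% NaN3, 1 M urea; compound (3-fold dilutions from 100 μM final) preincubated 10 min on ice, then 3–5 h at 37° C. Fibrils collected by vacuum filtration on 0.2 μm filters and counted for radioactivity.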

T3 sequence (P05067 672-711 limits assumed): as the sequence (P05067 672-711 limits assumed) above

As to `O=C(O)c1cc([N+](=O)[O-])ccc1Nc1ccc(CCc2ccc(Cl)c(Cl)c2)cc1` [Example 2, 2-{4-[2-(3,4-Dichloro-phenyl)-ethyl]phenylamino}-5-nitrobenzoic acid], the melting point (commonly the temperature, or range, at which the solid turns liquid) lay in the range of 214 to 217 °C. In data set [1], the IC50 (usually the midpoint of a concentration-inhibition curve) was determined as 70 µM. The compound further registered an IC50 in data set [2] of 6.52 µM. For the same compound, the IC50 in data set [3] is 1 µM and 1.5 µM. For the same compound, the IC50 in data set [4] is 2.2 µM and 4.1 µM (2×) and 12 µM and 4.5 µM.
`COc1cc(Nc2ccc(CCc3ccc(Cl)c(Cl)c3)cc2)c(C(=O)O)cc1[N+](=O)[O-]` [Example 3, 2-{4-[4-(3,4-Dichloro-phenyl)-ethyl]phenylamino}-4-methoxy-5-nitrobenzoic acid] gave a melting point of 208 to 209 °C. The same compound had an IC50 in data set [1] of more than 60 µM. The same compound returned an IC50 in data set [2] of 11.7 µM. In data set [3], the IC50 is 2 µM and 3 µM. The IC50 in data set [4] is 4.5 µM and 5 µM (3×) and 15 µM.
Compound `O=C(O)c1ccccc1Nc1ccc(CCc2ccc(O)c(O)c2)cc1` [Example 4, 2-{4-[2-(3,4-Dihydroxy-phenyl)-ethyl]-phenylamino}benzoic acid] returned a melting point of 215 to 217 °C. This compound registered an IC50 in data set [1] of 67 µM. In data set [2], the IC50 is 26.3 µM and 30.7 µM. The IC50 in data set [3] is 3 µM and 4 µM and 8 µM. Besides, the half-inhibitory concentration (IC50) in data set [4] is 30 µM and > 100 µM.
Compound `CCCCN(CCCC)c1ccc(CCc2ccc(Nc3ccccc3C(=O)O)cc2)cc1` [Example 5, 2-{4-[2-(4-Dibutylamino-phenyl)-ethyl]phenylamino}benzoic acid] came in with a melting point of 115 to 117 °C. Moreover, in data set [1], the IC50 came to 74 µM. Moreover, it took 10 µM to reach half-maximal inhibition in data set [2] (IC50). Moreover, the IC50 in data set [3] is 4.5 µM. For the same compound, in data set [4], the IC50 is 70 µM and > 100 µM.
On to `O=C(O)c1ccccc1Nc1ccc(CCCc2ccc(Cl)c(Cl)c2)cc1` [Example 9, 2-{4-[3-(3,4-Dichlorophenyl)-propyl]phenylamino}-benzoic acid], for which the melting point lay within 120 to 126 °C. Also, in data set [1], the IC50 worked out at 75 µM. For the same compound, the IC50 in data set [2] is 20.1 µM and 28.2 µM and 38.6 µM. Moreover, in data set [3], the IC50 is 1 µM and 2 µM. Also, the IC50 in data set [4] is 20 µM and 30 µM and 52 µM and 40 µM.
Regarding `O=C(O)c1cc([N+](=O)[O-])ccc1Nc1ccc(CCCCCc2ccc(Cl)c(Cl)c2)cc1` [Example 13, 2-{4-[5-(3,4-Dichlorophenyl)pentyl]phenylamino}-5-nitrobenzoic acid], the melting point fell in the range of 147 to 148 °C. Further, the IC50 in data set [1] amounted to 6 µM. Besides, inhibition in data set [2] was half-maximal at 6.41 µM (IC50). The IC50 in data set [3] was determined as 0.9 µM. The IC50 in data set [4] is 21 µM and > 100 µM (2×) and 20 µM and 15 µM.
As for `O=C(O)c1cc([N+](=O)[O-])ccc1Nc1ccc(CCCc2ccc(Cl)c(Cl)c2)cc1` [Example 15, 2-{4-[3-(3,4-Dichlorophenyl)propyl]phenylanino}-5-nitrobenzoic acid], the melting point was in the range of 153 to 155 °C. Besides, the IC50 in data set [1] is > 60 µM and 7 µM. Further, the IC50 in data set [2] was 8.52 µM and 7.26 µM and 7.07 µM. In data set [3], the IC50 was 1 µM and 1.2 µM. In addition, in data set [4], the IC50 was 16 µM and 12 µM and 15 µM and 11 µM.
Consider `O=C(O)c1ccccc1Nc1ccc(-c2ccc(Cl)c(Cl)c2)cc1` [Example 18, 2-[4-(3,4-Dichlorophenyl)phenylamino]benzoic acid], for which the melting point was more than 220 °C. Also, in data set [1], the IC50 is 9 µM and > 40 µM and 53 µM and 12 µM. The same compound returned an IC50 in data set [2] of more than 100 µM. The half-inhibitory concentration (IC50) in data set [3] is 30 µM and > 100 µM. Moreover, the IC50 in data set [4] is more than 100 µM.
In turn, `O=C(O)c1ccccc1Nc1ccc(CCCc2ccc([N+](=O)[O-])cc2)cc1` [Example 20, 2-{4-[3-(4-Nitrophenyl)propyl]phenylamino}benzoic acid] showed a melting point of 150 to 153 °C. Besides, the IC50 in data set [1] stood at 22 µM. Moreover, the IC50 in data set [2] is 68.6 µM. Besides, the IC50 in data set [3] came out at 6 µM. In addition, the IC50 in data set [4] was determined as 4.2 µM.
`O=C(O)c1ccccc1Nc1ccc(CCCc2cccc([N+](=O)[O-])c2)cc1` [Example 21, 2-{4-[3-(3-Nitrophenyl)propyl]phenylamino}benzoic acid]: the melting point fell in the range of 164 to 167 °C. The compound also came in with a half-maximal inhibitory concentration (IC50) in data set [1] of 26 µM. Moreover, the IC50 in data set [2] was 62.7 µM. Also, the IC50 in data set [3] stood at 4 µM. For the same compound, the IC50 in data set [4] amounted to 3 µM.
The like results for `Nc1ccc(CCc2ccc(Nc3ccccc3C(=O)O)cc2)cc1` [Example 24] were, in that order, 198 to 201 °C, 91 µM, more than 100 µM, 20 µM and more than 100 µM.
The like results for `CCCN(CCC)c1ccc(CCc2ccc(Nc3ccccc3C(=O)O)cc2)cc1.Cl` [Example 25, 2-{4-[2-(4-Dipropylaminophenyl)ethyl]phenylamino}benzoic acid monohydrochloride] were, in that order, 176 to 177 °C, 47 µM, 21.1 µM, 4 µM and more than 100 µM.
The like results for `CN(C)c1cccc(CCCc2ccc(Nc3ccccc3C(=O)O)cc2)c1` [Example 28, 2-{4-[3-(3-Dimethylaminophenyl)propyl]phenylamino}benzoic acid] were, in that order, 115 to 117 °C, 27 µM, 42.3 µM, 5 µM and more than 100 µM.
Regarding `CCNc1ccc(CCCc2ccc(Nc3ccccc3C(=O)O)cc2)cc1` [Example 29, 2-{4-[3-(4-Ethylaminophenyl)propyl]phenylamino}benzoic acid], the melting point was found to be 133 °C. Further, the IC50 in data set [1] was found to be 30 µM. In data set [2], the IC50 was determined as 38.1 µM. For the same compound, the IC50 in data set [3] worked out at 4 µM. Further, in data set [4], the IC50 is more than 100 µM.
The like results for `O=C(O)c1ccccc1Nc1ccc(CCc2cccc(N(Cc3ccccc3)Cc3ccccc3)c2)cc1` [Example 31, 2-{4-[2-(3-Dibenzylaminophenyl)ethyl]phenylamino}benzoic acid] were, in that order, 95.5 to 97.5 °C, 86 µM, 22.6 µM, 1 µM and more than 100 µM.
In the case of `Nc1cccc(CCc2ccc(Nc3ccccc3C(=O)O)cc2)c1` [Example 33, 2-{4-[2-(3-Aminophenyl)ethyl]phenylamino}benzoic acid], the melting point is 182 to 184 °C. This compound also had an IC50 in data set [1] of more than 10 µM. The IC50 in data set [2] is more than 100 µM. Moreover, in data set [3], the IC50 was more than 100 µM. Besides, the IC50 in data set [4] was more than 100 µM.
In the case of `CC(=O)Nc1cccc(CCc2ccc(Nc3ccccc3C(=O)O)cc2)c1` [Example 36, 2-{4-[2-(3-Acetylaminopheny)ethyl]phenylamino}benzoic acid], the melting point was 213 to 215 °C. This compound also returned an IC50 in data set [1] of 149 µM. Also, the IC50 in data set [2] was more than 100 µM. Moreover, the IC50 in data set [3] is more than 100 µM. The IC50 in data set [4] is more than 100 µM.
Compound `CCCN(CCC)c1cccc(CCc2ccc(Nc3ccccc3C(=O)O)cc2)c1.Cl` [Example 37, 2-{4-[2-(3-Dipropylaminophenyl)ethyl]phenylamino}benzoic acid monohydrochloride] returned a melting point of 189 to 193 °C. Further, the IC50 in data set [1] came to 25 µM. For the same compound, the IC50 in data set [2] came to 30.2 µM. Further, the IC50 in data set [3] was determined as 0.8 µM. Moreover, the IC50 in data set [4] was more than 100 µM.
As for `CCCCN(CCCC)c1cccc(CCc2ccc(Nc3ccccc3C(=O)O)cc2)c1.Cl` [Example 38, 2-{4-[2-(3-Dibutylaminophenyl)ethyl]phenylamino}benzoic acid monohydrochloride], the melting point fell in the range of 175 to 180 °C. In data set [1], the midpoint of inhibition, the IC50, lay at 184 µM. This compound yielded an IC50 in data set [2] of 23.4 µM. Also, the IC50 in data set [3] came out at 3 µM. Further, in data set [4], the IC50 was 20 µM and 10 µM.
`CC(=O)Nc1ccc(CCCc2ccc(Nc3ccccc3C(=O)O)cc2)cc1` [Example 39, 2-{4-[3-(4-Acetylaminophenyl)propyl]phenylamino}benzoic acid] displayed a melting point of 176 to 178 °C. In addition, the IC50 in data set [1] was found to be 21 µM. The compound further displayed an IC50 in data set [2] of more than 100 µM. Also, the IC50 in data set [3] came to 20 µM. In addition, in data set [4], the IC50 was more than 100 µM.
For the compound `O=C(O)c1ccccc1Nc1ccc(CCc2ccc(-c3ccccc3)cc2)cc1` [Example 129, 2-[4-(2-Biphenyl-4-yl-ethyl)-phenylamino]-benzoic acid], the melting point is 200 to 202 °C. Further, in data set [1], the IC50 was more than 102 µM. Moreover, in data set [2], the IC50 was more than 100 µM. Also, the IC50 in data set [3] was 10 µM and 3 µM and 2 µM (2×).
